Reference: PubChem BioAssay AID1963977 (Molecular Pharmacology Branch, DTP, NCI, 2024)

Test system: 624824-186-R-J3-PDC multicell spheroids, viability
Experiment: Anticancer human tumor 624824-186-R-J3-PDC patient-derived colon adenocarcinoma cell line growth inhibition [PI3K]
Details: for IC50: curve of first compound; for viability, T/C: stronger effect = lower value
How it was run: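 Spheroid viability read-out. Co-cultures contained the tumor line plus HUVEC and human MSCs. Each agent was paired with a PI3K inhibitor (inavolisib, alpelisib, duvelisib, copanlisib) across half-log dilutions starting at clinical Cmax, or at 10 microM when Cmax was unknown.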

[1] = second compound 0.00316 µM, first compound 0.0316 µM
[2] = second compound 0.00316 µM, first compound 0.1 µM
[3] = second compound 0.00316 µM, first compound 0.316 µM
[4] = second compound 0.00316 µM, first compound 1 µM
[5] = second compound 0.00316 µM, first compound 3.16 µM
[6] = second compound 0.00316 µM, first compound 10 µM
[7] = second compound 0.01 µM, first compound 0.0316 µM
[8] = second compound 0.01 µM, first compound 0.1 µM
[9] = second compound 0.01 µM, first compound 0.316 µM
[10] = second compound 0.01 µM, first compound 1 µM
[11] = second compound 0.01 µM, first compound 3.16 µM
[12] = second compound 0.01 µM, first compound 10 µM
[13] = second compound 0.0316 µM, first compound 0.0316 µM
[14] = second compound 0.0316 µM, first compound 0.1 µM
[15] = second compound 0.0316 µM, first compound 0.316 µM
[16] = second compound 0.0316 µM, first compound 1 µM
[17] = second compound 0.0316 µM, first compound 3.16 µM
[18] = second compound 0.0316 µM, first compound 10 µM
[19] = second compound 0.1 µM, first compound 0.0316 µM
[20] = second compound 0.1 µM, first compound 0.1 µM
[21] = second compound 0.1 µM, first compound 0.316 µM
[22] = second compound 0.1 µM, first compound 1 µM
[23] = second compound 0.1 µM, first compound 3.16 µM
[24] = second compound 0.1 µM, first compound 10 µM
[25] = second compound 0.316 µM, first compound 0.0316 µM
[26] = second compound 0.316 µM, first compound 0.1 µM
[27] = second compound 0.316 µM, first compound 0.316 µM
[28] = second compound 0.316 µM, first compound 1 µM
[29] = second compound 0.316 µM, first compound 3.16 µM
[30] = second compound 0.316 µM, first compound 10 µM
[31] = second compound 1 µM, first compound 0.0316 µM
[32] = second compound 1 µM, first compound 0.1 µM
[33] = second compound 1 µM, first compound 0.316 µM
[34] = second compound 1 µM, first compound 1 µM
[35] = second compound 1 µM, first compound 3.16 µM
[36] = second compound 1 µM, first compound 10 µM
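Further: spheroids exposed to agents for seven days before luminescence read.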
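Wherever viability, T/C is given: luminescent signal used as a stand-in for spheroid viability; percent viability relative to DMSO vehicle control wells taken as 100%.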

CC1(C)CCC(CN2CCN(c3ccc(C(=O)NS(=O)(=O)c4ccc(NCC5CCOCC5)c([N+](=O)[O-])c4)c(Oc4cnc5[nH]ccc5c4)c3)CC2)=C(c2ccc(Cl)cc2)C1 + CC(Nc1ccc2c(c1)OCCn1cc(N3C(=O)OCC3C(F)F)nc1-2)C(N)=O
IC50 (second compound 0.00316 µM): 9.41 µM | IC50 (second compound 0.01 µM): 8.77 µM | IC50 (second compound 0.0316 µM): 9.64 µM | IC50 (second compound 0.1 µM): 9.37 µM | IC50 (second compound 0.316 µM): > 10 µM | IC50 (second compound 1 µM): 9.12 µM | viability, T/C [1]: 104% | viability, T/C [2]: 88.6% | viability, T/C [3]: 102% | viability, T/C [4]: 90.9% | viability, T/C [5]: 112% | viability, T/C [6]: 47.3% | viability, T/C [7]: 105% | viability, T/C [8]: 92% | viability, T/C [9]: 99.5% | viability, T/C [10]: 106% | viability, T/C [11]: 114% | viability, T/C [12]: 43.2% | viability, T/C [13]: 100% | viability, T/C [14]: 105% | viability, T/C [15]: 89.4% | viability, T/C [16]: 99% | viability, T/C [17]: 117% | viability, T/C [18]: 48.3% | viability, T/C [19]: 88.7% | viability, T/C [20]: 99.9% | viability, T/C [21]: 90.9% | viability, T/C [22]: 109% | viability, T/C [23]: 102% | viability, T/C [24]: 47.1% | viability, T/C [25]: 98.5% | viability, T/C [26]: 95.3% | viability, T/C [27]: 99.2% | viability, T/C [28]: 86.3% | viability, T/C [29]: 89% | viability, T/C [30]: 53.6% | viability, T/C [31]: 82.7% | viability, T/C [32]: 85.5% | viability, T/C [33]: 85.7% | viability, T/C [34]: 81.4% | viability, T/C [35]: 70.2% | viability, T/C [36]: 48.2%

Cn1nccc1Nc1nccc(-c2ccn(C(CO)c3ccc(Cl)c(F)c3)c(=O)c2)n1 (centres undefined) + COc1c(OCCCN2CCOCC2)ccc2c3n(c(=NC(=O)c4cnc(N)nc4)nc12)CCN3
IC50 (second compound 0.00316 µM): 6.98 µM | IC50 (second compound 0.01 µM): 1.36 µM | IC50 (second compound 0.0316 µM): 0.4 µM | IC50 (second compound 0.1 µM): 0.153 µM | IC50 (second compound 0.316 µM): < 0.0316 µM | IC50 (second compound 1 µM): < 0.0316 µM | viability, T/C [1]: 111% | viability, T/C [2]: 84.7% | viability, T/C [3]: 100% | viability, T/C [4]: 72.8% | viability, T/C [5]: 57.7% | viability, T/C [6]: 46.6% | viability, T/C [7]: 112% | viability, T/C [8]: 100% | viability, T/C [9]: 87.5% | viability, T/C [10]: 51.4% | viability, T/C [11]: 41.8% | viability, T/C [12]: 34.4% | viability, T/C [13]: 90.2% | viability, T/C [14]: 83.8% | viability, T/C [15]: 56.2% | viability, T/C [16]: 26.4% | viability, T/C [17]: 25.1% | viability, T/C [18]: 21.8% | viability, T/C [19]: 74.5% | viability, T/C [20]: 58% | viability, T/C [21]: 35.9% | viability, T/C [22]: 14.2% | viability, T/C [23]: 10.7% | viability, T/C [24]: 9.81% | viability, T/C [25]: 46.3% | viability, T/C [26]: 38.4% | viability, T/C [27]: 18.3% | viability, T/C [28]: 7.62% | viability, T/C [29]: 4.31% | viability, T/C [30]: 2.66% | viability, T/C [31]: 26% | viability, T/C [32]: 20.9% | viability, T/C [33]: 13.4% | viability, T/C [34]: 6.73% | viability, T/C [35]: 3.58% | viability, T/C [36]: 2.38%
